Assays:
Assay in all cases: relative viability (nuclei count vs DMSO), 5 days (fraction); higher = more cells survive
[1] = compound: C1/C(=C\C2=CC=CS2)/C(=O)/C(=C/C3=CC=CS3)/C1 + Cc1nc(Nc2ncc(C(=O)Nc3c(C)cccc3Cl)s2)cc(N2CCN(CCO)CC2)n1 [Dasatinib] (partner 0.075 µM)
Method in brief: (§1)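 A single step with final 0.05% Triton X-100, 1% formaldehyde and 1 ug/ml Hoechst fixed the cells and stained nuclei 5 days after treatment. Lung cancer cell lines in 1536-well plates had been treated by pin tool the day after seeding with one drug alone or a fixed anchor-drug dose plus five library-drug doses (not always all listed) in √10 steps, and nuclei were counted on 4× images. Relative viability is the ratio of nuclei in treated wells to nuclei in vehicle wells, taken as the median of duplicate plates.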

[2] = compound: C[C@]12O[C@H](C[C@]1(O)CO)n1c3ccccc3c3c4c(c5c6ccccc6n2c5c31)CNC4=O [Lestaurtinib] + CCNC(=O)c1noc(-c2cc(C(C)C)c(O)cc2O)c1-c1ccc(CN2CCOCC2)cc1 [Luminespib] (partner 0.01 µM)
Method in brief: as §1

TPCA-1 + Pictilisib = compound: C1=CC(=CC=C1C2=CC(=C(S2)NC(=O)N)C(=O)N)F [TPCA-1] + CS(=O)(=O)N1CCN(Cc2cc3nc(-c4cccc5[nH]ncc45)nc(N4CCOCC4)c3s2)CC1 [Pictilisib] (partner 1 µM)
Method in brief: as §1

Lestaurtinib + Lapatinib = compound: C[C@]12O[C@H](C[C@]1(O)CO)n1c3ccccc3c3c4c(c5c6ccccc6n2c5c31)CNC4=O [Lestaurtinib] + CS(=O)(=O)CCNCc1ccc(-c2ccc3ncnc(Nc4ccc(OCc5cccc(F)c5)c(Cl)c4)c3c2)o1 [Lapatinib] (partner 2 µM)
Method in brief: as §1

Cell Line | relative viability ([1]; first compound 0.2 µM) | relative viability ([1]; first compound 0.6325 µM) | relative viability ([1]; first compound 2 µM) | relative viability ([1]; first compound 6.325 µM) | relative viability ([1]; first compound 20 µM) | relative viability ([2]; first compound 0.005 µM) | relative viability ([2]; first compound 0.01581 µM) | relative viability ([2]; first compound 0.05 µM) | relative viability ([2]; first compound 0.1581 µM) | relative viability ([2]; first compound 0.5 µM) | relative viability (TPCA-1 + Pictilisib; first compound 0.04 µM) | relative viability (TPCA-1 + Pictilisib; first compound 0.1265 µM) | relative viability (TPCA-1 + Pictilisib; first compound 0.4 µM) | relative viability (TPCA-1 + Pictilisib; first compound 1.265 µM) | relative viability (TPCA-1 + Pictilisib; first compound 4 µM) | relative viability (Lestaurtinib + Lapatinib; first compound 0.005 µM) | relative viability (Lestaurtinib + Lapatinib; first compound 0.01581 µM) | relative viability (Lestaurtinib + Lapatinib; first compound 0.05 µM) | relative viability (Lestaurtinib + Lapatinib; first compound 0.1581 µM) | relative viability (Lestaurtinib + Lapatinib; first compound 0.5 µM)
SW 900 | 0.64 | 0.773 | 0.769 | 0.574 | 0.671 | 0.172 | 0.146 | 0.151 | 0.159 | 0.178 |  |  |  |  |  |  |  |  |  | 
NCI-H1944 | 0.225 | 0.202 | 0.217 | 0.225 | 0.19 | 0.716 | 0.784 | 0.773 | 0.54 | 0.302 | 0.384 | 0.326 | 0.343 | 0.312 | 0.258 | 0.924 | 0.733 | 0.691 | 0.58 | 0.571
NCI-H727 | 0.333 | 0.49 | 0.447 | 0.449 | 0.387 | 0.478 | 0.401 | 0.427 | 0.284 | 0.387 | 0.389 | 0.249 | 0.35 | 0.28 | 0.222 | 1.21 | 0.986 | 0.78 | 0.813 | 0.263
NCI-H1650 | 0.313 | 0.3 | 0.341 | 0.306 | 0.316 | 0.183 | 0.195 | 0.188 | 0.164 | 0.18 | 0.7 | 0.537 | 0.592 | 0.423 | 0.422 | 0.987 | 0.95 | 0.817 | 0.512 | 0.157
HCC-827 | 0.405 | 0.366 | 0.31 | 0.265 | 0.31 | 0.332 | 0.505 | 0.344 | 0.289 | 0.33 | 1.21 | 0.868 | 1.04 | 0.81 | 0.744 | 0.201 | 0.197 | 0.212 | 0.188 | 0.192
HCC-366 | 0.638 | 0.592 | 0.751 | 0.608 | 0.474 |  |  |  |  |  | 0.182 | 0.13 | 0.177 | 0.117 | 0.124 | 1.16 | 1.16 | 0.79 | 1 | 0.0272
HARA | 0.275 | 0.3 | 0.338 | 0.269 | 0.252 | 0.682 | 0.847 | 0.681 | 0.872 | 0.0984 | 0.591 | 0.4 | 0.433 | 0.393 | 0.331 | 0.795 | 0.748 | 0.738 | 0.68 | 0.369
NCI-H322M | 0.256 | 0.244 | 0.249 | 0.237 | 0.247 | 0.773 | 0.713 | 0.449 | 0.337 | 0.329 | 0.587 | 0.494 | 0.529 | 0.532 | 0.464 | 0.555 | 0.567 | 0.416 | 0.424 | 0.525
LXF-289 | 0.241 | 0.178 | 0.251 | 0.154 | 0.203 | 0.833 | 0.746 | 0.421 | 0.33 | 0.293 | 0.836 | 0.698 | 0.797 | 0.735 | 0.499 | 0.867 | 0.917 | 0.713 | 0.769 | 0.375
PC-3 [JPC-3] | 1.03 | 0.981 | 1.04 | 0.856 | 0.948 | 0.647 | 0.645 | 0.53 | 0.525 | 0.255 | 0.8 | 0.714 | 0.81 | 0.746 | 0.612 | 0.425 | 0.498 | 0.456 | 0.414 | 0.335
CAL-12T | 0.513 | 0.504 | 0.566 | 0.341 | 0.48 | 0.484 | 0.52 | 0.556 | 0.256 | 0.06 | 0.283 | 0.438 | 0.507 | 0.224 | 0.162 | 0.671 | 0.649 | 0.537 | 0.384 | 0.246
COR-L 105 | 0.453 | 0.341 | 0.339 |  | 0.302 | 0.843 | 0.826 | 0.532 | 0.67 | 0.263 | 0.475 | 0.364 | 0.463 | 0.306 | 0.248 | 0.358 | 0.389 | 0.289 | 0.304 | 0.256
NCI-H2347 | 0.323 | 0.281 | 0.311 |  | 0.352 | 0.501 | 0.661 | 0.404 | 0.246 | 0.297 | 0.588 | 0.568 | 0.901 | 0.806 | 0.31 | 0.938 | 0.968 | 0.871 | 0.65 | 0.613
NCI-H2126 | 0.624 | 0.585 | 0.597 | 0.532 | 0.577 | 0.944 | 0.891 | 0.776 | 0.817 | 0.538 | 0.507 | 0.435 | 0.506 | 0.505 | 0.309 | 0.821 | 0.901 | 0.613 | 0.81 | 0.552
NCI-H838 | 0.278 | 0.268 | 0.274 | 0.276 | 0.284 | 0.321 | 0.321 | 0.284 | 0.227 | 0.197 | 0.547 | 0.429 | 0.452 | 0.325 | 0.387 | 1.04 | 0.998 | 0.664 | 0.451 | 0.132
A549 |  |  |  |  |  |  |  |  |  |  | 0.676 | 0.517 |  | 0.378 | 0.242 | 1.1 | 0.972 | 0.447 | 0.132 | 0.0697
NCI-H2342 | 0.314 | 0.347 | 0.352 | 0.306 | 0.326 | 0.779 | 0.624 | 0.651 | 0.738 | 0.7 |  |  |  |  |  |  |  |  |  | 
NCI-H1623 | 0.53 | 0.561 | 0.52 | 0.52 | 0.53 | 0.6 | 0.617 | 0.406 | 0.352 | 0.444 |  |  |  |  |  |  |  |  |  | 
